# Source: article PMC11783601, “Analogue-Sensitive Inhibition of Histone Demethylases Uncovers Member-Specific Function in Ribosomal Protein Synthesis” (Journal of the American Chemical Society, 2025)
# Assays:
# KDM4A-F185A = molecular target: T1, KDM4A-F185A (Homo sapiens, UniProt O75164, F185A); assay: Coupled fluorescence end-point assay for IC50; type: biochemical
# T1 construct: human KDM4A-jmjC domain (catalytic domain of KDM4A); 6xHis (N); host or cells: E. coli BL21 (DE3)
# T1 sequence (O75164 142-308 F185A limits assumed): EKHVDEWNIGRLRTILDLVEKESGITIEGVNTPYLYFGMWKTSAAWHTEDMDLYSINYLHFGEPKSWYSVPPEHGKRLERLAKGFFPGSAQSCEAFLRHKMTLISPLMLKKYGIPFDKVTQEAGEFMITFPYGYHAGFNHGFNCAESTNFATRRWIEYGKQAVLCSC
# Method: To probe the efficacy of bulky NOGs against the mutant, the inhibitory constant at half-maximal (IC50) was determined by the coupled enzymatic assay using increasing amounts of the NOG analogue at fixed concentrations of cofactor and substrate.
# (§1) NADH (ACROS, cat #124530050) was added to assay buffer (50 mM HEPES pH 8, 50 µM (NH4)2Fe(SO4)2, 1 mM L-ascorbic acid, 1 mM NAD+, 200 nM FDH, and 1 µM KDM4A) in varying concentrations (0-10 µM). The experiments were performed in 384-well white Corning plates. The fluorescence intensity was measured with excitation = 340 nm and emission = 490 nm on a TECAN Infinite M1000Pro. Triplicate values were taken for each concentration.
# The set up and analysis for IC50 of L-Leu NOG against KDM4A F185A enzyme was similar to that described in the coupled fluorescence assay section, but adjusted to function as an end point assay. The assay composed of an enzyme cocktail (50mM HEPES pH 8.0, 75 µM (NH4)2Fe(SO4)2, 2 mM L-ascorbic acid, 1 mM NAD+, 200 nM FDH, 3 µM wild type KDM4A or KDM4A-F185A, and varying concentration of compounds (NOGs 6, 9 and 10) and a substrate cocktail (200 µM […]
# 2OG and 60 µM H3K9me3 peptide). […]
# IC50 measurements were performed in triplicates. The data was plotted in GraphPad Prism to the equation Y=Bottom + (Top-Bottom)/(1+10^(X-LogIC50)), where Y = % Activity, and Bottom and Top being the lower and upper most plateaus of percent activity, respectively. […]
# KDM6B = molecular target: T2, KDM6B (Homo sapiens, UniProt O15054); assay: MALDI-based assay for KDM6B on H3K27me3 peptide; type: biochemical; settings: MALDI-TOF
# T2 construct: The plasmid construct for the catalytic domain of wild type KDM6B; 6xHis (N); made in house; host or cells: E. coli Rosetta [DE3]
# Method: as §1, with “(NH4)2Fe(SO4)2,” for “NADH (ACROS, cat #124530050) was added to assay buffer (50 mM HEPES pH 8, 50 µM (NH4)2Fe(SO4)2,”
# The set up and analysis for IC50 of L-Leu NOG against KDM4A F185A enzyme was similar to that described in the coupled fluorescence assay section, but adjusted to function as an end point […]
# 2 mM L-ascorbic acid, 1 mM NAD+, 200 nM FDH, 3 µM wild type KDM4A or KDM4A-F185A, and varying concentration of compounds (NOGs 6, 9 and 10) and a substrate cocktail (200 µM 2OG and 60 µM H3K9me3 peptide). Different concentrations of NOG 6 were measured at one […]
# For 9 and 10, the same set-up remained, but enzymatic activity was measured via MALDI-TOF analysis, and relative activity and inhibition was calculated for different NOG concentrations as described above. […]
# equivalent volume of water in 10 µL aliquots. […] The sample was ionized with Bruker FlexControl in the reflectron positive mode and analyzed on Bruker FlexAnalysis software. The percent demethylated peptide was calculated by first multiplying the K27me1 peak by 2 and the K27me0 peak by 3 to account for the multiple […]
# the reflectron positive mode and analyzed on Bruker FlexAnalysis software. […]
# T2 sequence (O15054 1339-1502 limits assumed): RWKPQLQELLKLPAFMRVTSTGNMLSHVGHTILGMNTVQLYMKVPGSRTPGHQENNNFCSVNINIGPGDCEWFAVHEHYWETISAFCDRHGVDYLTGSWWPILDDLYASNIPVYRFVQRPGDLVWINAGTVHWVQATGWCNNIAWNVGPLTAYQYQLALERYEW
structure (smiles),measurement,setting,value
"CC(C)CC(NC(=O)C(=O)O)C(=O)O (stereo not shown) [compound 6, N-oxalyl leucine]",IC50,"KDM4A-F185A; dose-dependent inhibition of F185A, 200 µM 2OG, 60 µM H3K9me3 peptide",0.7 ± 0.1 µM
same,IC50,"KDM4A-F185A; time-dependent inhibition of F185A, 1 hour",0.7 ± 0.1 µM
same,IC50,"KDM4A-F185A; time-dependent inhibition of F185A, 2 hour",1.2 ± 0.2 µM
same,IC50,"KDM4A-F185A; time-dependent inhibition of F185A, 3 hour",1.5 ± 0.3 µM
same,IC50,"KDM4A-F185A; time-dependent inhibition of F185A, 4 hour",1.8 ± 0.5 µM
same,IC50,"KDM4A-F185A; time-dependent inhibition of F185A, 5 hour (text: monitored over more than 5 h)",2.2 ± 0.5 µM
same,inhibition of KDM6B,KDM6B,No inhibition
